The assay has as its target T1, Δ^5 -lipoxygenase from rat basophilic leukemia (RBL-1) cells (Rattus norvegicus, UniProt P12527).
T1 construct: endogenous in cells; host or cells: RBL-1 rat basophilic leukemia cells (ATCC CRL 1378); 113,000×g supernatant (cytosolic fraction)
T1 sequence (P12527 1-673): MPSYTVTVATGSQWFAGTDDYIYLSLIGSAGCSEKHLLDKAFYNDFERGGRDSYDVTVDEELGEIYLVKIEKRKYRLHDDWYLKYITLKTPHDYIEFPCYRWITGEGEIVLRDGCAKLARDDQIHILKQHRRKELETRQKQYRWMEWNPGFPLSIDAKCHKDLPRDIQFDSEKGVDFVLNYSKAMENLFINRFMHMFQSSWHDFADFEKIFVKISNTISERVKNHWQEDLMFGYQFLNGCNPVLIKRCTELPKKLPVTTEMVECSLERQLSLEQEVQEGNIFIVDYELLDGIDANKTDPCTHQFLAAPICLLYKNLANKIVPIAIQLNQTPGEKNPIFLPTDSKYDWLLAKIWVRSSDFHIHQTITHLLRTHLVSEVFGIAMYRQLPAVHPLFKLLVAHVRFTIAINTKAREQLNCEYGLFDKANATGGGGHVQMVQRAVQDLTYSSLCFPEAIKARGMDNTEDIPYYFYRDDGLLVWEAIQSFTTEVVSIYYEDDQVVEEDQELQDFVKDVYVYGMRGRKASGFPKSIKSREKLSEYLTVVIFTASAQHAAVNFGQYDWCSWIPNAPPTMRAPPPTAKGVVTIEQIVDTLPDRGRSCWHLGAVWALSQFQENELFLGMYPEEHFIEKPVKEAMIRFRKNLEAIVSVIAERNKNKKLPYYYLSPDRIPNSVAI
The experiment in a line: In vitro test for Δ^5 -lipoxygenase inhibitors (5-LO), RBL-1 cell enzyme, 5-HETE radioimmunoassay. In kind it is biochemical. The conditions noted are these: RBL-1 5-LO; 10 min preincubation; 8.25 μM arachidonic acid, 10 min at 37° C.; 5-HETE formation; read-out: 5-LO IC-50. How it is done:
IN VITRO TEST FOR Δ^5 -LIPOXYGENASE INHIBITORS Compounds of formula I of the invention were tested for their effect on Δ^5 -lipoxygenase from rat basophilic leukemia (RBL-1) cells. Materials. RBL-1 cells (CRL 1378) were obtained from the American TYpe Culture Collection, Rockville, MD. DMEM and glutamine were purchased from Flow Labs, McLean, VA. FBS (Gibco, Grand Island, NY) was heat-inactivated for 1 hour at 56° C. Reagents for protein determinations were obtained from Biorad, Rockville Center, NY. Arachidonic acid (approx. 99%), ATP (disodium slat), BHT, dextran (clinical grade), tetrasodium EDTA, gelatin, gentamycin sulfate solution, reduced glutathione, 1 M HEPES buffer, indomethacin, NaCl, reduced NADpH, Trizma 7.2, and Trizma 8.5 were purchased from Sigma Chemical, St. Louis, MO. CaCl2 dihydrate, Norit A charcoal, and citric acid monohydrate were obtained from Fisher Scientific, Pittsburgh, PA. […] MA. A synthetic 5-HETE standard was supplied by Dr. M. Rosenberger, Dept. of Medicinal Chemistry, Hoffmann-La Roche, Nutley, NJ; [see Corey, E.J., and Hashimoto, S. (1981 ) Tet. Letters, 22, 299-302 for method of preparation]. Ecoscint liquid sointillation fluid was purchased from National Diagnostics, Sommerville, NJ. Isolation of 5-lipoxygenase. […] Approximately 7-9 days after thawing, RBL-1 cells growing in log phase were seeded at a density of 7500 viable cells/ml in a closed 89-liter spinner flask. The cells were stirred constantly for 3-4 days at 37° C. until they reached a density greater than 500,000/ml but less than 800,00/ml. RBL-1 cells were harvested by centrifugation at 4° C. at 1500×g for 10 minutes and were washed 3 times with ice cold 0.05 M tris-HCl, pH 7.2, tetrasodium EDTA (buffer 1). The cells were washed last in 0.05 M Tris-HCl containing 14 μM indomethacin, 1 mM glutathione, 1.5 mM NaCl, and 1 mM tetrasodium EDTA (buffer 2), resuspended at a density of 5×108'/ml (approximately 10 ml) and disrupted manually at 4° C. using a 40 ml Dounce (type A pestle) homogenizer. After 5 minutes of homogenization. 95% cell lysis was confirmed by phase contrast microscopy. The broken cells were diluted 1:2 with buffer 2 and centrifuged at 12,380×g for 10 minutes at 4° C. to pellet cellular debris and granules. The 12,380×g supernatant was centrifuged at 113,000×g for 60 minutes to pellet microsomes. The high-speed supernatant (5.9±0.48 mg/ml protein) was frozen immediately in 1 ml aliquots using a dry ice/acetone bath. The isolated cytosolic fraction was stored in liquid N2 for up to 8 weeks without loss of 5-LO enzyme activity. Lipoxygenase Assay. Compounds Were dissolved at 25 mM concentration in DMSO, then diluted to final concentrations using 95% ethanol. For a typical enzyme assay, the partially purified 5-LO preparation was preincubated with drug or vehicle for 10 minutes at 30° C. The assay tubes were then transferred at a 37° C. water bath where they received arachidonic acid (8.25 μM final concentration) to initiate 5-LO activity. In addition to enzyme and substrate, each reaction tube contained: 12.5 μmoles of Tris-HCl (pH 7.2), 25 nmoles glutathione, 0.35 nmoles indomethacin and 1.25 μmoles of CaCl2 and ATP to yield a total of volume of 250 μl. The enzyme reaction was terminated after 10 minutes by the addition of 75μl […] citric acid to yield pH 3.5. The samples were immediately cooled on ice and neutralized by dilution with 0.05 M Tris-HCl, pH 8.5, which contained 25 mg/1 BHT. A boiled cytosol control was placed at the end of each assay to measure non-enzymatic oxidation of arachidonic acid. The mean specific activity of the 5-LO enzyme preparation was approximately 66.16±14.39 pmol 5-HETE/min/mg protein. Radioimmunoassay for 5-HETE. Under the assay conditions described, the 5-LO catalyzed the conversion of arachidonic acid to 5-HPETE which, as a consequence o peroxidase activity, was reduced to 5-HETE. A specific radioimmunoassay was employed to quantitate the amount (pmoles) of 5-HETE formed during the enzyme reaction. […]
As to `Cc1c(C)c2c(c(C)c1O)CCC(C)(C#Cc1ccccc1)O2` (racemic) [Example 1, rac-3,4-Dihydro-2,5,7,8-tetramethyl-2-(phenylethynyl)-2H-1-benzopyran-6-ol], the IC50 was 40 nM.

On to `Cc1c(C)c2c(c(C)c1O)CCC(C)(C#Cc1cccs1)O2` (racemic) [Example 4, rac-3,4-Dihydro-2,5,7,8-tetramethyl-2-[(2-thienyl)ethynyl]-2H-1-benzopyran-6-ol], for which the IC50 was found to be 23 nM.

Consider `Cc1c(C)c2c(c(C)c1O)CCC(C)(C#Cc1cccnc1)O2` (racemic) [Example 14, rac-3,4-Dihydro-2,5,7,8-tetramethyl-2-[(3-pyridinyl)ethynyl]-2H-1-benzopyran-6-ol], for which the IC50 was 40 nM.

Turning to `Cc1c(C)c2c(c(C)c1O)CCC(C)(C#Cc1ccccn1)O2` (racemic) [Example 15, rac-3,4-Dihydro-2,5,7,8-tetramethyl1-2-[(2-pyridinyl)ethynyl]-2H-1-benzopyran-6-ol], the IC50 worked out at 16 nM.

With `Cc1c(C)c2c(c(C)c1O)CCC(C)(C#Cc1csc3ccccc13)O2` (racemic) [Example 16, rac-[2-(Benzo[b]thiophen-3-yl)ethynyl]-3.4-dihydro-2,5,7,8-tetramethyl-2H-1-benzopyran-2H-1-benzopyran-6-ol], the IC50 is 1.6 nM.

Regarding `COc1ccc(C#CC2(C)CCc3c(C)c(O)c(C)c(C)c3O2)cc1OC(C)=O` (racemic) [Example 20, rac-2-[(3-Acetyloxy-4-methoxyphenyl)ethynyl]-3.4-dihydro-2,5,7,8-tetramethyl-2H-1-benzopyran-6-ol], the IC50 was 24 nM.

Take `COc1cccc(C#CC2(C)CCc3c(C)c(O)c(C)c(C)c3O2)c1` (racemic) [Example 22, rac-3,4-Dihydro-2-(3-methoxyphenyl)ethynyl)-2,5,7,8-tetra-methyl-2H-1-benzopyran-6-ol]: the IC50 was found to be 170 nM.

With `COC(=O)c1cc(C#CC2(C)CCc3c(C)c(O)c(C)c(C)c3O2)ccc1O` (racemic) [Example 23, rac-5-(3,4-Dihydro-6-hydroxy-2,5,7,8-tetramethyl-2H-1-benzopyran-2-yl)ethynyl]-2-hydroxybenzoic acid methyl ester], the IC50 came to 160 nM.

Regarding `Cc1c(C)c2c(c(C)c1O)CCC(C)(C#Cc1ccc(-c3cccnc3)cc1)O2` (racemic) [Example 24, rac-3,4-Dihydro-2,5,7,8-tetramethyl-2-{[4-(3-pyridinyl)-phenyl]ethynyl}-2H-1-benzopyran-6-ol], the IC50 is 160 nM.

In the case of `Cc1c(C)c2c(c(C)c1O)CCC(C)(C#Cc1ccc(-c3ccccn3)s1)O2` (racemic) [Example 26, rac-3,4-Dihydro-2,5,7,8-tetramethyl-2-{[5-(2-pyridinyl)-2-thienyl]ethynyl}-2H-1-benzopyran-6-ol], the IC50 came out at 160 nM.

Regarding `COc1cc(C=O)cc(C#CC2(C)CCc3c(C)c(O)c(C)c(C)c3O2)c1O` (racemic) [Example 28, rac-3-[(3,4-Dihydro-6-hydroxy-2,5,7,8-tetramethyl-2H-1-benzopyran-2-yl)ethynyl]-4-hydroxy-5-methoxybenzaldehyde], the IC50 turned out to be 130 nM.

For `COc1cc(CO)cc(C#CC2(C)CCc3c(C)c(O)c(C)c(C)c3O2)c1O` (racemic) [Example 29, rac-3-[(3,4-Dihydro-6-hydroxy-2,5,7,8-tetramethyl-2H-1-benzopyran-2-yl)ethynyl]-4-hydroxy-5-methoxybenzenemethanol], the IC50 came out at 130 nM.

As for `COc1cc(C=NO)cc(C#CC2(C)CCc3c(C)c(O)c(C)c(C)c3O2)c1O` (racemic) [Example 30, rac-3-[(3,4-Dihydro-6-hydroxy-2,5,7,8-tetramethyl-2H-1-benzopyran-2yl)ethynyl]-4-hydroxy-5-methoxybenzaldehydeoxime], the IC50 stood at 160 nM.

Consider `CCCCc1ccc(C#CC2(C)CCc3c(C)c(O)c(C)c(C)c3O2)s1` (racemic) [Example 31, rac-2-[(5-Butyl-2-thienyl)ethynyl]-3,4-dihydro-2,5,7,8-tetramethyl-2H-1-benzopyran-6-ol], for which the IC50 turned out to be 1000 nM.

In the case of `Cc1c(C)c2c(c(C)c1O)CCC(C)(C#Cc1cnc3ccccc3c1)O2` (racemic) [Example 33, rac-3,4-Dihydro-2,5,7,8-tetramethyl-2-(3-quinolinylethynyl)-2H-1-benzopyran-6-ol], the IC50 came to 160 nM.

For `Cc1c(C)c2c(c(C)c1O)CCC(C)(C#Cc1cncc3ccccc13)O2` (racemic) [Example 34, rac-3,4-Dihydro-2-[(4-isoquinolinyl)ethynyl]-2,5,7,8-tetramethyl-2H-1-benzopyran-6-ol], the IC50 was 1000 nM.

Consider `Cc1c(C)c2c(c(C)c1O)CCC(C)(C#Cc1cccc(C(F)(F)F)c1)O2` (racemic) [Example 35, rac-2-{[3-(Trifluoromethyl)phenyl]ethynyl-3,4-dihydro-2,5,7,8-tetramethyl-2H-1-benzopyran-6-ol], for which the IC50 came out at 190 nM.

On to `Cc1c(C)c2c(c(C)c1O)CCC(C)(C#Cc1ccc(F)c(F)c1)O2` (racemic) [Example 36, rac-2-[(3,4-Difluorophenyl)ethynyl]-3,4-dihydro-2,5,7,8-tetramethyl-2H-1-benzopyran-6-ol], for which the IC50 was 120 nM.

As to `Cc1c(C)c2c(c(C)c1O)CCC(C)(C#Cc1cccc3ccccc13)O2` (racemic) [Example 39, rac-3,4-Dihydro-2,5,7,8-tetramethyl-2-(1-naphthyl)ethynyl-2H-1-benzopyran-6-ol], the IC50 was 500 nM.

On to `Cc1c(C)c2c(c(C)c1O)CCC(C)(C#Cc1ccccc1N)O2` (racemic) [Example 40, rac-2-[(2-Aminophenyl)ethynyl]-3,4-dihydro-2,5,7,8-tetramethyl-2H-1-benzopyran-6-ol], for which the IC50 was found to be 20 nM.

Turning to `CC(=O)Oc1cc(C#CC2(C)CCc3c(C)c(O)c(C)c(C)c3O2)ccc1OCc1ccccc1` (racemic) [Example 41, rac-2-{[3-Acetyloxy-4-(phenylmethoxy)phenyl]ethynyl}-3,4-dihydro-2,5,7,8-tetramethyl-2H-1-benzopyran-6-ol], the IC50 came out at 32 nM.

Values taken from US5015661A, “Chromanes and their pharmaceutical compositions and methods” (Hoffmann-La Roche Inc., priority 1989, dated 1991).
